Measurements from patent US11754498B2, “Single AIEgen for multiple tasks: imaging of dual organelles and evaluation of cell viability” (THE HONG KONG UNIVERSITY OF SCIENCE AND TECHNOLOGY, priority 2019, dated 2023).

How the values were obtained:
[1] = absorption and fluorescence (FL) spectra, photophysical properties; format: physicochemical
Procedure: The absorption and fluorescence (FL) spectra of TVQE and TVQ in different solvents were tested and the results are shown in FIGS. 11A-11D and FIGS. 12A-12D.
Furthermore, fluorescence spectra of TVQE in EtOH and EtOH/hexane mixtures with different hexane fraction were shown in FIG. 11A. In pure EtOH, TVQE was weakly emissive with a quantum yield of 0.7%. With the increase of hexane volume content, the FL intensity increased gradually, accompanied with blue-shift in FL maximum from 673 nm to 637 nm, shown in FIG. 11B. When fH=90%, FL intensity reached the maximum with a quantum yield of 3% due to the formation of aggregates, indicating the AIE feature of TVQE. The FL intensity decreased when fH increased to 95%, probably due to the change of the morphology and size of the aggregates. […]

[2] = tested on: mitochondria in live HeLa cells; assay: co-stain with mitochondrial probe MitoTracker Deep Red FM (MTDR), CLSM; format: cell-based; details: 2 μM TVQE, 0.2 μM MTDR
Procedure: (§1) To further confirm the staining location of TVQE, co-stain experiments with commercialized mitochondrial probe MitoTracker Deep Red FM (MTDR) and lipid-droplet probe Nile Red were performed.

esterase = assay: FL spectra of TVQE treated with active esterase in PBS; format: biochemical; details: room temperature
Procedure: To get insight into the mechanism of TVQE to esterase, the FL spectra of TVQE treated with active esterase in PBS at room temperature were measured and shown in FIG. 11D. At the beginning, only a weak emission peak at around 700 nm was detected. As treatment time progressed, the fluorescence at about 520 nm increased gradually, which was consistent with the FL spectra of TVQ in PBS, depicted in FIG. 12B.

live HeLa cells = assay: CLSM imaging of live HeLa cells, in situ emission spectra and time tracking; format: cell-based
Procedure: Bioimaging experiments were then carried out in live HeLa cells. Based on the spectra imaging function of confocal laser scanning microscope (CLSM), the real color images of live HeLa cells stained with TVQE and in situ emission spectra were obtained (FIGS. 14A-14C and FIG. 15A). […] As designed, TVQE can be hydrolyzed by esterase to provide TVQ. It was speculated that the red emission came from TVQE while the blue emission was from the hydrolysate TVQ.
The in situ imaging performance of TVQE in live HeLa cells at different time points was then tracked and investigated (FIGS. 16A-16B and FIGS. 17A-17B). It could be observed that TVQE first stained mitochondria and emitted red fluorescence. Then, after about 5 min, lipid droplets in the blue channel were clearly illuminated. It should be noted that the fluorescence intensity in the red channel increased at the beginning, reached maximum at about 12 min, then decreased gradually. The fluorescence in the blue channel increased with increased time. […] In addition, the lipophilic hydrolysate tended to accumulate in lipid droplets gradually.

HeLa cells [3] = assay: flow cytometry of live, early apoptotic, late apoptotic and dead cells stained by TVQE; format: cell-based
Procedure: As esterase activity can reflect cell viability, an investigation was conducted to determine whether TVQE could be used to evaluate cell viability. […] In apoptotic cells, the esterase activity decreased, so that the emission in the blue channel was much weaker than that in live cells. When HeLa cells were treated with 10 mM H2O2 for 1 h and 4.5 h, early and late apoptotic HeLa cells could be clearly and differentially visualized (FIGS. 18 and 19). […] However, nearly no blue-emissive fluorescence signal but strong red emission was detected in dead cells because of the inactivated esterase activity. […] The fluorescence changes in both blue and red channels of cells in different states were obtained from flow cytometry (Becton Dickinson FACSAria Mu). Referring to FIG. 20C, numerical values in the cyan region, e.g., mean fluorescent intensity values around 3.2×10^4 and 650 in the blue and red channels, respectively correspond to cells that were alive, numerical values in the red region, e.g., mean fluorescence intensity values around 1.4×10^4 and 780 in the blue and red channels, respectively, correspond to cells in early apoptotic stages, numerical values in the orange region, e.g., mean fluorescence intensity values around 1700 and 4200 in the blue and red channels, respectively, correspond to cells in the late apoptotic stages, and numerical values in the green region, e.g., mean fluorescence intensity values around 780 and 1.5×10^4 in the blue and red channels, respectively, correspond to cells that were dead.
Flow cytometry is a widely used tool for statistical analysis. It has different laser sources and is suitable for simultaneous detection of multichannel fluorescence signals. A flow cytometry assay was performed to monitor the fluorescence changes in both red and blue channels of cells at different physiological stages. […] Compared with live cells, the blue emission in early apoptotic cells was a little weaker. […] The red emission in dead cells was stronger in comparison with late apoptotic cells.

[4] = tested on: lipid droplets in live HeLa cells; assay: co-stain with lipid-droplet probe Nile Red, CLSM; format: cell-based; details: 2 μM TVQE, 1 μM Nile Red
Procedure: as §1

HeLa cells [5] = assay: standard MTT assay, cytotoxicity in HeLa cells; format: cell-based; details: incubation at different concentrations for 24 h
Description: Before bioimaging, the cytotoxicity of TVQE was first studied by standard MTT assay in HeLa cells.

[6] = live HeLa cells stained with 2 μM TVQE, in situ emission spectra
[7] = cells in early apoptotic stages (10 mM H2O2)
[8] = cells in the late apoptotic stages (10 mM H2O2)

CC(=O)Oc1ccc(C[n+]2ccc(/C=C/c3ccc(N(c4ccccc4)c4ccccc4)cc3)c3ccccc32)cc1 [TVQE]
Stokes shift ([1]; EtOH): 123 nm
Φ (fluorescence quantum yield) ([1]; EtOH): 0.7%
ε (molar absorptivity at maximum absorption wavelength) ([1]; EtOH): 18900 M⁻¹ cm⁻¹
λabs (absorption maximum) ([1]; EtOH): 548 nm
λem (emission maximum) ([1]; EtOH): 671 nm
Stokes shift ([1]; Hexane/EtOH = 9/1): 131 nm
ε (molar absorptivity at maximum absorption wavelength) ([1]; Hexane/EtOH = 9/1): 18800 M⁻¹ cm⁻¹
λabs (absorption maximum) ([1]; Hexane/EtOH = 9/1): 527 nm
λem (emission maximum) ([1]; Hexane/EtOH = 9/1): 656 nm
Φ (fluorescence quantum yield) ([1]; Hexane/EtOH = 9/1 (fH=90%)): 3%
Stokes shift ([1]; THF): 156 nm
Φ (fluorescence quantum yield) ([1]; THF): 1.3%
ε (molar absorptivity at maximum absorption wavelength) ([1]; THF): 16600 M⁻¹ cm⁻¹
λabs (absorption maximum) ([1]; THF): 522 nm
λem (emission maximum) ([1]; THF): 678 nm
Stokes shift ([1]; Tol): 125 nm
Φ (fluorescence quantum yield) ([1]; Tol): 6.6%
ε (molar absorptivity at maximum absorption wavelength) ([1]; Tol): 17300 M⁻¹ cm⁻¹
λabs (absorption maximum) ([1]; Tol): 534 nm
λem (emission maximum) ([1]; Tol): 659 nm
fluorescence emission ([1]; solid state): 739 nm
quantum yield ([1]; solid state): 2.3%
co-localization coefficient with MTDR [2]: 0.9
hydrolysis by esterase (esterase; active esterase (1 U/mL) in PBS): could be hydrolyzed to TVQ with blue emission by esterase
fluorescence increasing gradually as treatment time progressed (esterase; esterase in PBS): about 520 nm
emission peak at the beginning (esterase; esterase in PBS, beginning of treatment): around 700 nm
blue emission inside cells (live HeLa cells; [6]): 480 nm
red emission inside cells (live HeLa cells; [6]): 650 nm
time after which lipid droplets in the blue channel were clearly illuminated (live HeLa cells; live HeLa cells, 2 μM TVQE): about 5 min
time at which fluorescence intensity in the red channel reached maximum (live HeLa cells; live HeLa cells, 2 μM TVQE): about 12 min
mean fluorescence intensity, blue channel (HeLa cells [3]; [7]): around 1.4×10^4
mean fluorescence intensity, red channel (HeLa cells [3]; [7]): around 780
mean fluorescence intensity, blue channel (HeLa cells [3]; [8]): around 1700
mean fluorescence intensity, red channel (HeLa cells [3]; [8]): ~4200
mean fluorescent intensity, blue channel (HeLa cells [3]; cells that were alive): around 3.2×10^4
mean fluorescent intensity, red channel (HeLa cells [3]; cells that were alive): ~650
mean fluorescence intensity, blue channel (HeLa cells [3]; cells that were dead): around 780
mean fluorescence intensity, red channel (HeLa cells [3]; cells that were dead): ~1.5×10^4
co-localization coefficient with Nile Red [4]: 0.87
viability of HeLa cells (HeLa cells [5]): higher than 85%
